From publication PMC5997322, “Imaging c-Met expression using 18F-labeled binding peptide in human cancer xenografts” (PLoS ONE, 2018) come the findings set out here.

Molecules are shown by their SMILES. Residues, ends and D or L forms follow the SMILES beside them. *: point of attachment. Propanoyl(2-F) = CC(F)C(=O)*

Series [1] can be described thus: Ex vivo biodistribution (gamma-counting). The class given is in vivo, mice. The settings on record: male, athymic nu/nu, mouse, iv, total radioactivity, 30 min after injection, mean ± SD, n = 4. On the procedure:
(§1) The human head and neck squamous carcinoma (HNSCC) cell line UM-SCC-22B (obtained from the University of Michigan) was used in this study. The cells were maintained in DMEM supplemented with 10% fetal bovine serum (FBS), 1% glutamine, 100 unit/ml penicillin, and […] streptomycin (Invitrogen, CA). Subcutaneous UM-SCC-22B tumor model was established in 4 to 6 weeks old male athymic nu/nu mice (Harlan Laboratories). Typically, 5 × 10^6 cells suspended in 50 μl of PBS were injected in the right or left front shoulder. Tumor growth was followed by caliper measurements of perpendicular diameters of the tumor. The tumor volume was estimated by the formula: tumor volume = a×b^2 /2, where a and b were the tumor length and width, respectively, in millimeters. Small animal PET studies were performed when the tumor volume reached 100 to 200 mm^3.
After microPET imaging, the blood of mice bearing UM-SCC-22B tumor xenografts was drawn from the orbital sinus, then mice were sacrificed by cervical dislocation and selected organs were excised. Blood, tumor, and major organs tissues were collected and weighed (wet weight). The radioactivity in each tissue was measured using a gamma-counter (Packard Instrument). Distribution of activity was calculated as percentage of injected dose per gram of organ (%ID/g). For each mouse, the radioactivity of the tissue samples was calibrated against a known aliquot of the injected dose and normalized to a body mass of 30 g. Values were expressed as mean ± SD for a group of four animals.

The nature of series [2]: MicroPET imaging, ROI quantification. The class given is in vivo, mice. The settings on record: male, athymic nu/nu, mouse, iv, total radioactivity, 3.7 MBq i.v., mean ± SD, n = 4. On the procedure: as §1
(§2) To perform a microCT scan by a high-resolution Inveon MicroCT scanner (Siemens Medical Solutions) before microPET scan, an anesthetized nude mouse bearing UM-SCC-22B tumor was mounted on a turntable bed that could be moved automatically in the axial direction. Whole body CT acquisition parameters were as follows: voltage 70 kVp, current 400 μA, angular sampling 1° per projection for a full 360° scan, and effective pixel size 58 μm. Scan time was approximately 12 min. The image was reconstructed in real-time by a modified Feldkamp cone bean algorithm with a Shepp-Logan filter and appropriate center offset determined prior to scanning. PET scans were performed using an Inveon microPET scanner (Siemens Medical Solutions). Tumor-bearing mice were anesthetized using isoflurane/O2 (1.5–2% v/v) and intravenously injected with 3.7 MBq (100 μCi) of [^18F]FP-Met-pep1 in a volume of 100 μl saline. For blocking experiments, [^18F]FP-Met-pep1 was co-injected with 500 μg of unlabeled Met-pep1 peptide. Each group contained four mice. The images were reconstructed by a three-dimensional ordered subsets expectation maximization (3D-OSEM) algorithm with maximum a posteriori (MAP) algorithm and the frame rates were 10 × 30s, 5 × 60s, 5 × 120s and 10 × 240s, and no correction was applied for attenuation or scatter. Static images at 1 h time point were also acquired as 10-min static images for region of interest (ROI) quantification. Image analysis was done using ASI Pro VMTM software. PET/CT images were co-registered and fused automatically with ASI software. For each microPET scan, three-dimensional ROIs were drawn over the tumor, liver, kidney, and muscle on decay-corrected whole-body coronal images. The average radioactivity concentration within a tumor or an organ was obtained from mean pixel values within the ROI volume, which were converted to counts per milliliter by using a pre-determined conversion factor.

The test system of series [3] is UM-SCC-22B tumor-bearing mice. Nature of the series: MicroPET imaging, ROI quantification. The class given is in vivo. On the procedure:
as §1, §2

Series [4] relates to UM-SCC-22B cells. Briefly: Cell uptake and blocking of [18F]FP-Met-pep1. The class given is cell-based, human. On the procedure: (§3) For cell uptake measurement, UM-SCC-22B cells were seeded into a 24-well plate at a density of 1×10^5 cells per well and incubated with 18.5 kBq (0.5 μCi)/well of [^18F]FP-Met-pep1 at 37°C for 15, 30 and 60 min. Tumor cells were then washed twice with cold PBS and harvested by adding 250 μl of 0.1 N NaOH. Internalization assay was preformed similarly to the procedure described above. After 15, 30 and 60 min incubation of UM-SCC-22B cells with [^18F]FP-Met-pep1 at 37°C, the cells were washed twice with cold PBS and then incubated for 1 min with acid-washing-buffer (50 mM glycine, 0.1 M NaCl, pH = 2.8) to remove surface bound radioactive ligand. Thereafter, the cells were washed twice with cold PBS and harvested by adding 250 μl of 0.1 N NaOH. The blocking assay was preformed similarly to the procedure described above except that the unlabeled c-Met binding peptide was added into the wells (500 μg/well) and incubated for 15 min at 37°C before adding [^18F]FP-Met-pep1. For efflux experiment, all UM-SCC-22B cells in a 24-well plate were initially incubated with 18.5 kBq (0.5 μCi)/well of [^18F]FP-Met-pep1 at 37°C for 1 hour. […] The cell suspensions were collected and measured in a gamma counter and the cell uptake, internalization and efflux were expressed as the percentage of the added dose (%AD) after decay correction to EOB. […]

For series [5], the system named is UM-SCC-22B cells. Nature of the series: Efflux experiment. The class given is cell-based, human. The settings on record: UM-SCC-22B cells loaded 1 h at 37°C, then serum-free DMEM. On the procedure: as §3
Series [6] concerns UM-SCC-22B cells. Nature of the series: Internalization assay (acid wash). The settings on record: 37°C, early phase, acid wash pH 2.8. It counts as cell-based, human. On the procedure:
as §3

For the compound `CC(C)C[C@H](NC(=O)[C@@H](N)Cc1ccc(O)cc1)C(=O)N[C@@H](Cc1ccccc1)C(=O)N[C@@H](CO)C(=O)N[C@H](C(=O)N[C@@H](Cc1c[nH]cn1)C(=O)N[C@@H](Cc1c[nH]c2ccccc12)C(=O)N1CCC[C@H]1C(=O)N1CCC[C@H]1C(=O)N[C@@H](CC(C)C)C(=O)N[C@@H](CCCCNC(=O)C(C)F)C(=O)N[C@@H](C)C(=O)O)C(C)C` (some centres unmarked) [[^18F]FP-Met-pep1] (H-YLFSVHWPPLK(Propanoyl(2-F))A-OH), the tissue uptake at 0.5 h was found to be 1.55 ± 0.48 %ID/g in series [1] (blood, 3.7 MBq, without blocking, read-out: blood tracer concentration); 2.85 ± 0.76 %ID/g in series [1] (blood, with 500 μg unlabeled peptide, read-out: blood tracer concentration, after blocking); 10.5 ± 0.53 %ID/g in series [1] (kidney, 3.7 MBq, blocking state not clearly stated, read-out: kidney tracer accumulation (ex vivo)); 5.58 ± 0.45 %ID/g in series [1] (liver, 3.7 MBq, blocking state not clearly stated, read-out: liver tracer accumulation (ex vivo)); 4.58 ± 0.59 %ID/g in series [1] (tumor (UM-SCC-22B xenograft), 3.7 MBq, absence of unlabeled peptide, read-out: tumor uptake (tissue sampling, gamma-counting)); 0.88 ± 0.35 %ID/g in series [1] (tumor (UM-SCC-22B xenograft), presence of 500 μg unlabeled peptide, read-out: tumor uptake (tissue sampling, gamma-counting), blocked). The tissue uptake at 0.5 h in series [2] (liver, 30 min post-injection, read-out: liver uptake (microPET)) came out at 11.5 ± 0.78 %ID/g; in series [2] (tumor (UM-SCC-22B xenograft), UM-SCC-22B tumor, 30 min post injection, read-out: tumor uptake (microPET)), 4.72 ± 0.67 %ID/g. Further, the tissue uptake at 1 h in series [2] (tumor (UM-SCC-22B xenograft), UM-SCC-22B tumor, 60 min post injection) amounted to 3.83 ± 0.55 %ID/g. Besides, the tissue uptake at 2 h in series [2] (tumor (UM-SCC-22B xenograft), UM-SCC-22B tumor, 120 min post injection) was found to be 3.11 ± 0.25 %ID/g. Further, the “muscle uptake (microPET)” value in series [3] (all timepoints (30, 60, 120 min)) is “very low uptake”. The “radioactivity excreted, primarily through the renal pathway” value in series [3] (within 2 h after injection, dynamic microPET (S1 Fig)) was “about 65%”. The “cell uptake in presence of unlabeled Met-pep1 (blocking)” value with UM-SCC-22B cells [4] (500 μg/well unlabeled Met-pep1 pre-incubated 15 min at 37°C) is listed as “dramatic inhibition of cell uptake”. Further, the “cell uptake (percentage of added dose)” value in the series on UM-SCC-22B cells [4] (18.5 kBq (0.5 μCi)/well, 37°C, 30 min incubation (peak), gamma counter, mean ± SD, triplicate wells) turned out to be 34.52 ± 1.34%. The “tracer effluxed out of the cells” value with UM-SCC-22B cells [5] (15 min) was “approximately 47%”. In the series with UM-SCC-22B cells [5] (end of incubation (60 min)), the “radiotracer remained bound with the cells” value is given as “about 36%”. The “fraction of observed uptake due to internalization” value in the series on UM-SCC-22B cells [6] is recorded as “Approximately 2/3”.
